We go through 3 compounds from patent publication US10071985B2, “Therapeutic compounds” (Gilead Sciences, Inc., priority 2016, dated 2018).

Where two headings read alike, the source gives them in different places.

One data set has as its system HIV-IIIb. The experiment in a line: Test A: Antiviral Assay in MT4 Cells. The class given is cell-based, HIV-1.
Data set [1] can be described thus: Test C: Pharmacokinetic analysis following intravenous administration to Sprague-Dawley rats. It counts as in vivo. The conditions noted are these: for clearance: read-out: Rat CL (converted); for AUC(0-inf): t = 0 to infinity, read-out: Rat AUCinf; for Cmax: maximum plasma concentration.
Excerpt: (§1) Test C. Pharmacokinetic Analysis Following Intravenous Administration to Sprague-Dawley Rats and Beagle Dogs and Cynomologous Monkeys
All IV formulations were in solution.
(§2) Each rat IV dosing group consisted of 3 male SD rats. […] The animals were fasted overnight prior to dose administration and up to 4 hr after dosing. Each dog IV dosing group consisted of 3 male, naïve beagle dogs. At dosing, the animals weighed ˜10-12 kg. The animals were fasted overnight prior to dose administration and up to 2 hr after dosing.
(§3) For the IV infusion group, the test compound was administered by intravenous infusion over 30 minutes. The rate of infusion was adjusted according to the body weight of each animal to deliver a dose of 1 mg/kg at 2 mL/kg.
(§4) Serial venous blood samples (approximately 0.4 mL each for rat and 1.0 mL for dog) were taken at specified time points after dosing from each animal. The blood samples were collected into Vacutainer™ tubes (Becton-Dickinson Corp, New Jersey, USA) containing EDTA as the anti-coagulant and were immediately placed on wet ice pending centrifugation for plasma. Centrifugation began within 1 hour of collection. All samples were placed into 96-well tubes and maintained on dry ice prior to storage at approximately −70° C.
(§5) An LC/MS/MS method was used to measure the concentration of test compounds in plasma.
(§6) Non-compartmental pharmacokinetic analysis was performed on the plasma concentration-time data.
Data set [2] in a line: Test C: Pharmacokinetic analysis following intravenous administration to cynomolgus monkeys. It counts as in vivo, cynomolgus (cyno) monkey. The conditions noted are these: male, cynomolgus monkey, 1 mg/kg; for AUC(0-inf): t = 0 to infinity, read-out: Cyno AUCinf; for Cmax: maximum plasma concentration, read-out: Cyno Cmax.
Description: as §1
All IV formulations were in solution.
Each cynomolgus (cyno) monkey IV dosing group consisted of 3 male, naïve cyno monkeys At dosing, the animals weighed ˜3.2-4 kg. The animals were fasted overnight prior to dose administration and up to 2 hr after dosing.
as §3, §4, §5, §6
A further data set relates to Human Liver Hepatocytes. Nature of the data set: Test D: Metabolic Stability in Cultured Human Liver Hepatocytes. It counts as in vitro ADME. The conditions noted are these: pooled cryopreserved hepatocytes, […] radiolabelled compound, 0-6 hours; calculated from stability data.
A short description of data set [3]: Test B: Cytotoxicity Assay. The conditions noted are these: human.
Description: Compound cytotoxicity and the corresponding CC50 values was determined using the same protocol as described in the antiviral assay (Test A) except that uninfected cells were used.
Data set [4] in a line: Test C: Pharmacokinetic analysis following intravenous administration to beagle dogs. The class given is in vivo.
Excerpt: as §1
All IV formulations were in solution.
as §2, §3, §4, §5, §6
[5] abbreviates: male, Sprague-Dawley, rat, plasma, iv, 1 mg/kg.
The mark [6] stands for this setting: male, Sprague-Dawley, rat, plasma, IV infusion over 30 minutes, 1 mg/kg.
Setting [7] is: male, Sprague-Dawley, rat, IV infusion over 30 minutes, 1 mg/kg.
The mark [8] stands for this setting: plasma, IV infusion over 30 minutes.
Setting [9] is: Human immunodeficiency virus 1, IIIB, MT4, 120 h.

Description for HIV-IIIb: 1 mL Aliquots of MT4 cells were pre-infected for 3 hours at 37° C. with 25 μL of cell growth medium (mock-infected) or a fresh 1:250 dilution of an HIV-IIIb concentrated ABI stock (0.004 m.o.i.). Infected and uninfected cells were diluted in cell growth media and 35 μL (2000 cells) was added to each well of the assay plates.
Assay plates were then maintained in a humidified, 5% CO2 incubator at 37° C. After 5 days of incubation, 25 μl of 2× concentrated CellTiter-Glo™ Reagent (catalog #G7573, Promega Biosciences, Inc., Madison, Wis.) was added to each well of the assay plate. Cell lysis was carried out by incubating at room temperature for 10 minutes and then chemiluminescence was read using an Envision plate reader (PerkinElmer).
Description for Human Liver Hepatocytes: Test D. Metabolic Stability in Cultured Human Liver Hepatocytes
The final hepatocyte concentration was 1 million cells/mL. The hepatocyte/compound reaction mixture was dissolved in InVitroGRO™ KHB buffer (catalog #Z99074, BioreclamationIVT, Inc., Baltimore, Md.) at pH 7.4. The incubations were performed in duplicate. A cell free control and a positive control were included in the incubations. The incubations were carried out with gentle shaking in a 37° C. incubator under a humid atmosphere of 95% air/5% CO2 (v/v). Aliquots (100 mL) were removed after 0, 1, 3, and 6 hours and added to 200 mL quenching solution that comprised 0.1% (v/v) TFA in 5% water/95% acetonitrile (v/v). The samples were placed on a shaker for 10 min, followed by centrifugation at 3000 g for 30 min. The samples of the supernatant were analyzed on a Dionex HPLC/PerkinElmer Flow Scintillation Analyzer as described below.
The column was a Phenomenex Synergi fusion RP (150×4.6 mm, 4 mm) maintained at 32 degrees Celsius. Mobile Phase A consisted of 0.1% (v/v) TFA in 99% water/1% acetonitrile (v/v). Mobile Phase B consisted of 0.1% (v/v) TFA in 5% water/95% acetonitrile (v/v). […]
Metabolic stability was determined by measuring the change in relative abundance of metabolites and parent over time and calculating from it the rate of disappearance of the parent compound. […]

With `CC(C)(C#Cc1ccc(-c2ccc(Cl)c3c(NS(C)(=O)=O)nn(CC(F)(F)F)c23)c([C@H](Cc2cc(F)cc(F)c2)NC(=O)Cn2nc(C(F)(F)F)c3c2C(F)(F)[C@@H]2C[C@H]32)n1)S(C)(=O)=O` [Compound 24, N—((S)-1-(3-(4-chloro-3-(methylsulfonamido)-1-(2,2,2-trifluoroethyl)-1H-indazol-7-yl)-6-(3-methyl-3-(methylsulfonyl)but-1-yn-1-yl)pyridin-2-yl)-2-(3,5-difluorophenyl)ethyl)-2-((3bS,4aR)-5,5-difluoro-3-(trifluoromethyl)-3b,4,4a,5-tetrahydro-1H-cyclopropa[3,4]cyclopenta[1,2-c]pyrazol-1-yl)acetamide], the EC50 – broadly, the midpoint of the concentration-response curve – in the data set with HIV-IIIb (Human immunodeficiency virus 1, 120 h, MT4 cells infected with HIV-IIIb, 5 days incubation, CellTiter-Glo, read-out: EC50) worked out at 0.185 nM. Besides, in data set [1] (setting [5]), the clearance was 0.833 mL/min/kg. Further, the figures for the AUC(0-inf) in data set [1] (setting [6]) and in data set [2] (setting [8]) were 19 µM·h and 4.5 µM·h, respectively. The results for the maximum concentration (Cmax) in data set [1] (setting [7]) and in data set [2] (IV infusion over 30 minutes) were 1800 nM and 1300 nM, respectively. Besides, the “Predicted Human Hepatic Clearance” value with Human Liver Hepatocytes is 0.17 mL/min/kg. Half-maximal cytotoxicity in data set [3] (uninfected MT4 cells) (CC50 at 5 days) was put at 30100 nM.

`CC(C)(C#Cc1ccc(-c2ccc(Cl)c3c(NS(=O)(=O)C4CC4)nn(CC(F)F)c23)c([C@H](Cc2cc(F)cc(F)c2)NC(=O)Cn2nc(C(F)F)c3c2C(F)(F)[C@@H]2C[C@H]32)n1)S(C)(=O)=O` [Compound 38, N—((S)-1-(3-(4-chloro-3-(cyclopropanesulfonamido)-1-(2,2-difluoroethyl)-1H-indazol-7-yl)-6-(3-methyl-3-(methylsulfonyl)but-1-yn-1-yl)pyridin-2-yl)-2-(3,5-difluorophenyl)ethyl)-2-((3bS,4aR)-3-(difluoromethyl)-5,5-difluoro-3b,4,4a,5-tetrahydro-1H-cyclopropa[3,4]cyclopenta[1,2-c]pyrazol-1-yl)acetamide] returned a concentration for a half-maximal effect (EC50) in the data set on HIV-IIIb (setting [9]) of 0.399 nM. In the data set on HIV-IIIb (relative to compound A), the “times more potent in HIV antiviral assay relative to compound A” value is reported as “about 4 times”. Moreover, the “times more potent in HIV antiviral assay relative to compound B” value in the data set with HIV-IIIb (relative to compound B) is listed as “about 8 times”. Besides, the clearance in data set [1] (setting [5]) is 1.33 mL/min/kg; in data set [4] (male, beagle, dog, plasma, iv, 1 mg/kg, read-out: Dog CL (converted)) it was 5.5 mL/min/kg; in data set [2] (plasma, iv, read-out: Cyno CL (converted)) it was 3.5 mL/min/kg. The half-life is 19 h in data set [1] (male, Sprague-Dawley, rat, plasma, iv, 1 mg/kg, read-out: Rat t1/2 (converted)); 7 h in data set [4] (male, beagle, dog, plasma, iv, 1 mg/kg, read-out: Dog t1/2 (converted)); 9.5 h in data set [2] (plasma, iv, read-out: Cyno t1/2 (converted)). For the same compound, the AUC(0-inf) in data set [1] (setting [6]) amounted to 13 µM·h; in data set [4] (male, beagle, dog, plasma, IV infusion over 30 minutes, 1 mg/kg, t = 0 to infinity, read-out: Dog AUCinf), 3.3 µM·h; in data set [2] (setting [8]), 4.9 µM·h. The Vd in data set [1] (male, Sprague-Dawley, rat, plasma, IV infusion over 30 minutes, 1 mg/kg, volume of distribution at steady state, read-out: Rat Vss) worked out at 1.8 L/kg; in data set [4] (male, beagle, dog, plasma, IV infusion over 30 minutes, 1 mg/kg, volume of distribution at steady state, read-out: Dog Vss), 1.77 L/kg; in data set [2] (plasma, IV infusion over 30 minutes, volume of distribution at steady state, read-out: Cyno Vss) it was 2.1 L/kg. Further, the Cmax (usually the maximum level reached in the sampled fluid or tissue) was determined as 2400 nM in data set [1] (setting [7]); 1600 nM in data set [4] (male, beagle, dog, IV infusion over 30 minutes, 1 mg/kg, maximum plasma concentration); 1300 nM in data set [2] (IV infusion over 30 minutes). The “times longer in vivo terminal half-life in rat relative to compound A” value in data set [1] (relative to compound A) is “about 9.5 times”. Besides, the “times lower in vivo clearance in rat relative to compound A” value in data set [1] (relative to compound A) was “about 6.3 times”. For the same compound, the “times longer in vivo terminal half-life in rat relative to compound B” value in data set [1] (relative to compound B) is recorded as “about 6.3 times”. Also, in data set [1] (relative to compound B), the “times lower in vivo clearance in rat relative to compound B” value is “about 5.4 times”. For the same compound, the “in vivo clearance and terminal half-life in dog compared to compounds A and B” value in data set [4] (compared to compounds A and B) was “similar”. In addition, it took 55200 nM to reach half-maximal cytotoxicity in data set [3] (CC50 at 5 days).

`Cn1nc(NS(C)(=O)=O)c2c(Cl)ccc(-c3ccc(C#CC(C)(C)O)nc3[C@H](Cc3cc(F)cc(F)c3)NC(=O)Cn3nc(C(F)(F)F)c4c3C(F)(F)[C@@H]3C[C@H]43)c21` [Compound B, reference compound] registered an EC50 in the data set on HIV-IIIb (setting [9]) of 2.99 nM.
